Holding throughout (type): in vivo, mouse
In assay [1] the test system is FKRP-P448L mutant dystrophic mice. The assay can be described thus: Muscle histology (H&E staining) in FKRP P448L mutant mice. To be noted: for fibrotic streaks in cardiac muscle / histology (H&E) / inflammation, degeneration and fibrotic tissue in skeletal muscle: 1 year of treatment, 5 day a week; for inflammation, degeneration and fibrotic tissue in muscle / muscle pathology (H&E): 6 month treatment, 5 days a week, 10 mg/kg, vs saline. As to the method: FIG. 1. […] C57 normal mouse muscles were used as controls. Saline, mice treated with saline as negative control. […] Hematoxylin and eosin (H&E) staining was used.
FIG. 4. […] H&E staining was used. The therapeutic effect is best seen with 10 mg/kg tamoxifen treatment. […] C57 normal mouse muscles were used as controls. P448-Saline, mice treated with saline as negative control.
(§1) This invention applies tamoxifen and raloxifene for clinical use in FKRP mutant dystrophic mouse models for the treatment of dystroglycanopathies, specifically those caused by mutations in the FKRP gene. Mutations in the FKRP gene cause muscular dystrophy with the lack of functional glycosylation of alpha-dystroglycan (α-DG) as the characteristic biochemical marker in the diseased tissues. Mouse models with the FKRP mutations present in patients show the same biochemical feature as patients' tissues, most prominently in muscles (Chan Y M, Hum Mol Genet 2010, 19(20): 3995-4006; Blaeser A, Hum Genet 2013, 132(8): 923-934). […] Histologically, the diseased muscles undergo continuous degeneration as indicated by the presence of degenerating muscle fibers, variation in fiber size, presence of centrally nucleated fibers (a result of regeneration which is the consequence of muscle damage), inflammatory cells and an increase in non-muscle fiber connective tissues (FIG. 1). […] The best results were obtained with 5-10 mg/kg tamoxifen and 50 mg/kg raloxifene, which would be equivalent to human equivalent dose (HED) of about 0.5 mg/kg for tamoxifen and 5 mg/kg for raloxifene. […] The improvement in muscle function and pathology is even greater after 1 year treatment.

In assay [2] the test system is glycosylated alpha-dystroglycan (α-DG). In words: Immunohistochemistry with monoclonal antibody IIH6 on muscles of treated FKRP mutant mice.
Text: FIG. 2. […] C57 normal mouse muscles were used as controls. Saline, mice treated with saline as negative control. The positive staining is seen surrounding the fiber membrane and a few revertant fibers are observed in the saline treated controls.
as §1

The subject of assay [3] is FKRP-P448L mutant dystrophic mice. In words: Grip force measurement in FKRP P448L mutant mice. The source says:
FIG. 3. […] C57 normal mice muscles as controls. Saline, mice treated with saline as negative control.
FIG. 5. […] Saline treated control, column 1; C57 normal control, column 8).
(§2) This invention applies tamoxifen and raloxifene for clinical use in FKRP mutant dystrophic mouse models for the treatment of dystroglycanopathies, specifically those caused by mutations in the FKRP gene. Mutations in the FKRP gene cause muscular dystrophy with the lack of functional glycosylation of alpha-dystroglycan (α-DG) as the characteristic biochemical marker in the diseased tissues. Mouse models with the FKRP mutations present in patients show the same biochemical feature as patients' tissues, most prominently in muscles (Chan Y M, Hum Mol Genet 2010, 19(20): 3995-4006; Blaeser A, Hum Genet 2013, 132(8): 923-934). […] Histologically, the diseased muscles undergo continuous degeneration as indicated by the presence of degenerating muscle fibers, variation in fiber size, presence of centrally nucleated fibers (a result of regeneration which is the consequence of muscle damage), inflammatory cells and an increase in non-muscle fiber connective tissues (FIG. 1). […] The best results were obtained with 5-10 mg/kg tamoxifen and 50 mg/kg raloxifene, which would be equivalent to human equivalent dose (HED) of about 0.5 mg/kg for tamoxifen and 5 mg/kg for raloxifene.

Assay [4] has the same test system. In words: Treadmill exercise in FKRP P448L mutant mice. To be noted: 1 year treatment, vs saline-treated cohort.
Text: FIG. 6. […] Saline treated control, column 1; C57 normal control, column 8).
as §2

The test system is the same in assay [5]. The assay can be described thus: Overall therapeutic effect (muscle pathology and function) on feeding FKRP-P448L mutant mice. To be noted: for dose giving the best results / muscle pathology and function: feeding 5 days a week; for dose relation of the therapeutic effects: tamoxifen 2, 5, 10, 50 mg/kg/day, raloxifene 10, 50, 100 mg/kg/day.
Text: as §1

[6] abbreviates: 6 months of treatment, 5 days a week, 10 mg/kg; vs saline.
Setting [7] is: 2 mg/kg/day, 1 year treatment; vs saline-treated cohort.
Where [8] appears, read: 50 mg/kg/day, 1 year treatment; vs saline-treated cohort.

This is an account of results in patent publication US10172812B2, “Compounds and methods for treating muscular dystrophy and other disorders” (The Charlotte Mecklenburg Hospital Authority, priority 2017, dated 2019).

“Also recorded” adds a separate entry of the source.

Consider `CC/C(=C(\c1ccccc1)c1ccc(OCCN(C)C)cc1)c1ccccc1` [tamoxifen], for which, in assay [1] (10 mg/kg/day), the “fibrotic streaks in cardiac muscle” value is “Reduced fibrotic streaks”; the “histology (H&E)” value was “Improvement in histology”; the “inflammation, degeneration and fibrotic tissue in skeletal muscle” value is “Reduction”. Besides, in assay [1], the “inflammation, degeneration and fibrotic tissue in muscle” value is listed as “Reduction”; the “muscle pathology (H&E)” value is reported as “significantly improve muscle pathology”. For the same compound, in assay [2] (6 months of treatment, 5 days a week, 10 mg/kg, vs saline), the “levels of glycosylated alpha-dystroglycan (α-DG) detected with IIH6” value is listed as “enhance the levels of glycosylated alpha-dystroglycan; also recorded: enhanced expression of alpha-DG”. The “number of IIH6 positive fibers” value in assay [2] (setting [6]) is recorded as “clearly increased”. In addition, in assay [3] (setting [7]), the “grip force measurement (other than hindlimb)” value is recorded as “Significant improvement” and the “grip force measurement, hindlimb” value is “did not reach significance”. The grip force measurement entry in assay [3] (10 mg/kg/day, 1 year treatment; vs saline-treated cohort) was “Significant improvement”. The grip force measurement result in assay [3] (setting [8]) is recorded as “Significant improvement”. Also, in assay [3] (6 months of treatment, 5 days a week, 10 mg/kg; vs saline; 10 mg/kg), the “muscle function by grip force measurement” value is reported as “improved muscle function”. In assay [4] (2 mg/kg/day), the treadmill running distance entry is given as “Significant improvement” and the treadmill running time result is on record as “did not reach significance”. Moreover, in assay [4] (10 mg/kg/day), the treadmill running distance result is reported as “Significant improvement” and the treadmill running time entry is “Significant improvement”. Moreover, in assay [4] (50 mg/kg/day), the treadmill running distance entry was “Significant improvement” and the treadmill running time entry is “Significant improvement”. In assay [5], the “dose giving the best results” value was in the range of 5 to 10 mg/kg; the “muscle pathology and function” value is “significantly improved muscle pathology and function”; the “dose relation of the therapeutic effects” value is “dose-related with increasing efficacy”.

Turning to `O=C(c1ccc(OCCN2CCCCC2)cc1)c1c(-c2ccc(O)cc2)sc2cc(O)ccc12` [raloxifene], in assay [1] (50 mg/kg/day), the “fibrotic streaks in cardiac muscle” value is given as “Reduced fibrotic streaks”; the “histology (H&E)” value is “Improvement in histology”; the “inflammation, degeneration and fibrotic tissue in skeletal muscle” value is listed as “Reduction”. In assay [1], the “inflammation, degeneration and fibrotic tissue in muscle” value is given as “Reduction”; the “muscle pathology (H&E)” value is listed as “significantly improve muscle pathology”. Moreover, in assay [2] (setting [6]), the “levels of glycosylated alpha-dystroglycan (α-DG) detected with IIH6” value was “enhance the levels of glycosylated alpha-dystroglycan” and the “number of IIH6 positive fibers” value is recorded as “clearly increased”. In assay [3] (setting [8]), the grip force measurement result is listed as “Significant improvement”. Further, the grip force measurement entry in assay [3] (100 mg/kg/day, 1 year treatment; vs saline-treated cohort) is recorded as “Significant improvement”. Also, the “muscle function by grip force measurement” value in assay [3] (setting [6]) was “improve muscle function”. Besides, in assay [4] (50 mg/kg/day), the treadmill running distance entry was “Significant improvement” and the treadmill running time result is on record as “Significant improvement”. For the same compound, in assay [4] (100 mg/kg/day), the treadmill running distance entry was “Significant improvement” and the treadmill running time result is listed as “Significant improvement”. Moreover, in assay [5], the “dose giving the best results” value is 50 mg/kg; the “muscle pathology and function” value was “significantly improved muscle pathology and function”; the “dose relation of the therapeutic effects” value is given as “dose-related with increasing efficacy”.
